What was measured:
[1] = molecular target: T1, Axl (Homo sapiens, UniProt P30530); experiment: LanthaScreen Eu kinase binding assay for Axl; conditions: read-out: Axl kinase binding activity (Kd)
T1 sequence (P30530 26-894): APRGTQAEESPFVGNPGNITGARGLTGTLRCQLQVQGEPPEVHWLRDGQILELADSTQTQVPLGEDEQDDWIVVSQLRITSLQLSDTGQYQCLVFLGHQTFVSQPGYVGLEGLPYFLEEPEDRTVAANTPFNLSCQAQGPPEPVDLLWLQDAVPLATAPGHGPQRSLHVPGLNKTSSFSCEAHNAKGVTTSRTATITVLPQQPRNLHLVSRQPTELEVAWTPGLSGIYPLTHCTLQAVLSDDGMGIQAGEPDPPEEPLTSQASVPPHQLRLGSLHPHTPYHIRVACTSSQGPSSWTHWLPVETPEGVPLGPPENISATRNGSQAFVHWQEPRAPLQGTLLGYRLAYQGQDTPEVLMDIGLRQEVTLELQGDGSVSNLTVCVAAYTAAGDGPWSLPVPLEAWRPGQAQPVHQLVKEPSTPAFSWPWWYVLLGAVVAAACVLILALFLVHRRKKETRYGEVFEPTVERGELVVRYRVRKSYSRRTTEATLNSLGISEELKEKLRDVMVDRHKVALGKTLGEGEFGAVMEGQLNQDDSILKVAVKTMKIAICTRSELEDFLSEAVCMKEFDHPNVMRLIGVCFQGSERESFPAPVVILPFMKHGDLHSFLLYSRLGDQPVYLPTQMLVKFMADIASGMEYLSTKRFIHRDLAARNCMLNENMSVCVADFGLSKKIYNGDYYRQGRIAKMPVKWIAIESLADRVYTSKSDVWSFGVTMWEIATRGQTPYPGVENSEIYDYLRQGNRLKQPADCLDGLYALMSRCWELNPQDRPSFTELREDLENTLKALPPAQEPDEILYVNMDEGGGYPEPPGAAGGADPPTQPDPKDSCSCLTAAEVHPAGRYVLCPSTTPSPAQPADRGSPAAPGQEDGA
Procedure, shortened: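 Competitive displacement of Alexa Fluor 647-labeled Tracer 236 from the kinase, with binding detected by TR-FRET with a Eu-labeled anti-GST antibody. Compounds were run as 8-step DMSO serial dilutions and incubated 1 h at room temperature. Kd was calculated relative to DMSO vehicle control wells.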

[2] = molecular target: T1, Axl; experiment: Cellular Axl inhibition ELISA (p-Axl, Gas6-induced) using H1299 cells; assay type: cell-based; parameters: especially H1299 cell endogenously expresses Axl; endogenous in cells; host or cells: H1299; conditions: read-out: Cellular Axl activity by H1299 Elisa (IC50)
Procedure, shortened: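 H1299 cells, seeded overnight, exposed 24 h at 37 °C to 10-point 3-fold compound dilutions, then stimulated with 200 ng/ml human Gas6 (final) for 1 h. Lysates assayed for p-Axl by sandwich ELISA with HRP/TMB, absorbance 450 nm; IC50 by sigmoidal dose-response fit.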

Structure (SMILES) | Kd [1] [nM] | IC50 [2] [nM]
COc1cc2nccc(Oc3ccc(NC(=O)c4nn(CC5COC5)cc4OCC(F)(F)F)c(F)c3)c2cc1OC [Compound 95] | < 100 | < 500
COc1cc2nccc(Oc3ccc(NC(=O)c4nn(C5CCOC5)cc4OCC(F)(F)F)cc3C)c2cc1OC (centres unmarked) [Compound 85] | < 100 | < 500
COc1cc2nccc(Oc3ccc(NC(=O)c4nn(C5CCN(C)C5)cc4OCC(F)(F)F)c(F)c3)c2cc1OC (centres unmarked) [Compound 94] | < 100 | < 500
COc1cc2nccc(Oc3ccc(NC(=O)c4nn(CCC5CCCC5)cc4OCC(F)(F)F)nc3)c2cc1OC [Compound 93] | < 100 | < 500
COc1cc2nccc(Oc3ccc(NC(=O)c4nn(CC(C)O)cc4OCC(F)(F)F)cc3C)c2cc1OC (centres unmarked) [Compound 83] | < 100 | < 500
COc1cc2nccc(Oc3ccc(NC(=O)c4nn(CCN)cc4OCC(F)(F)F)cc3F)c2cc1OC [Compound 79] | < 100 | < 500
COc1cc2nccc(Oc3ccc(NC(=O)c4nn(CCN)cc4OCC(F)(F)F)cc3)c2cc1OC [Compound 88] | 100 to 500 | 500 to 1000
COc1cc2nccc(Oc3ccc(NC(=O)c4nn(C5CC5)cc4OCC(F)(F)F)nc3)c2cc1OC [Compound 5] | < 100 | < 500
COc1cc2nccc(Oc3ccc(NC(=O)c4nn(C5CCNC5)cc4OCC(F)(F)F)cc3C)c2cc1OC (centres unmarked) [Compound 81] | ≥ 500 | ≥ 1000
COCCn1cc(OCC(F)(F)F)c(C(=O)Nc2ccc(Oc3ccnc4cc(OC)c(OC)cc34)c(C)c2)n1 [Compound 84] | < 100 | < 500
COc1cc2nccc(Oc3ccc(NC(=O)c4nn(CC(C)C)cc4OCC(F)(F)F)cc3)c2cc1OC [Compound 87] | < 100 | < 500
COc1cc2nccc(Oc3ccc(NC(=O)c4nn(C5CCNC5)cc4OCC(F)(F)F)cc3F)c2cc1OC (centres unmarked) [Compound 78] | < 100 | < 500
COc1cc2nccc(Oc3ccc(NC(=O)c4nn(CCN)cc4OCC(F)(F)F)cc3C)c2cc1OC [Compound 82] | ≥ 500 | ≥ 1000
COc1cc2nccc(Oc3ccc(NC(=O)c4nn(C5CCNC5)cc4OCC(F)(F)F)cc3)c2cc1OC (centres unmarked) [Compound 86] | 100 to 500 | < 500
COc1cc2nccc(Oc3ccc(NC(=O)c4nn(C5CCOCC5)cc4OCC(F)(F)F)nc3)c2cc1OC [Compound 90] | < 100 | < 500
COc1cc2nccc(Oc3ccc(NC(=O)c4nn(C5CCOC5)cc4OCC(F)(F)F)c(F)c3)c2cc1OC (centres unmarked) [Compound 77] | < 100 | < 500
COc1cc2nccc(Oc3ccc(NC(=O)c4nn(CC(C)O)cc4OCC(F)(F)F)cc3F)c2cc1OC (centres unmarked) [Compound 80] | < 100 | < 500
COc1cc2nccc(Oc3ccc(NC(=O)c4nn(CC(C)O)cc4OCC(F)(F)F)cc3)c2cc1OC (centres unmarked) [Compound 89] | < 100 | < 500
COc1cc2nccc(Oc3ccc(NC(=O)c4nn(C5CCN(C)C5)cc4OCC(F)(F)F)nc3)c2cc1OC (centres unmarked) [Compound 91] | < 100 | < 500
